23 compounds from patent US6492365B1, “Microsomal triglyceride transfer protein” (Bristol-Myers Squibb Company, priority 1992, dated 2002) can be followed below.

Where a name gives a salt, the structure may show the parent alone.

The compound `COc1ccccc1N1CCN(C(=O)C2CC(=O)c3ccccc3C2)CC1` (centres unmarked) (as salt: hydrochloride) [Example 25, 3,4-Dihydro-3-[[4-(2-methoxyphenyl)-1-piperazinyl]-carbonyl]-1(2H)-naphthalenone, monohydrochloride] had a melting point of 197 to 199 °C. The figure for `CCCCC(CCCC)CCN1CCC(N2Cc3ccccc3C2=O)CC1` (as salt: hydrochloride) [Example 17, 2-[1-(3-Butylheptyl)-4-piperidinyl]-2,3-dihydro-1H-isoindol-1-one, monohydrochloride] is 185 to 187 °C; for `O=C(Cc1c[nH]c2ccccc12)NC1CCN(Cc2ccccc2)CC1` [Example 28, N-[1-(Phenylmethyl)-4-piperidinyl]-1H-indole-3-acetamide] it is 153 to 154 °C; for `O=C1c2ccccc2CN1C1CCN(CC=C(c2ccccc2)c2ccccc2)CC1` (as salt: hydrochloride) [Example 11, 2-[1-(3,3-Diphenyl-2-propenyl)-4-piperidinyl]-2,3-dihydro-1H-isoindol-1-one, monohydrochloride] it is 231 to 235 °C. Turning to `O=C(NC1CCN(CCC(c2ccccc2)c2ccccc2)CC1)c1ccccn1` (as salt: hydrochloride) [Example 40, N-[1-(3,3-Diphenylpropyl)-4-piperidinyl]-2-pyridineamide, monohydrochloride], the melting point lay in the range of 109 to 116 °C. Consider `O=C1c2ccccc2CN1C1CCN(C/C=C/CC(c2ccccc2)c2ccccc2)CC1` (as salt: hydrochloride) [Example 33, 2-[1-(5,5-Diphenyl-2-pentenyl)-4-piperidinyl]-2,3-dihydro-1H-isoindol-1-one, monohydrochloride], for which the melting point was 127 to 134 °C. `COc1ccc(C(C(=O)NC2CCN(CCc3ccccc3)CC2)c2ccc(OC)cc2)cc1` (as salt: hydrochloride) [Example 29, 4-Methoxy-α-(4methoxyphenyl)-N-[1-(2-phenylethyl)-4-piperidinyl]benzeneacetamide, monohydrochloride] returned a melting point of 180 to 182 °C. The figure for `O=C1CC(CN2CCN(c3ccccc3)CC2)Cc2ccccc21` (centres unmarked) (as salt: hydrochloride) [Example 23, 3,4-Dihydro-3-[(4-phenyl-1-piperazinyl)methyl]-1-(2H)-naphthalenone, monohydrochloride] is 243 to 246 °C; for `O=C(NC1CCN(CCc2ccccc2)CC1)C(c1ccccc1)c1ccccc1` (as salt: hydrochloride) [Example 30, α-Phenyl-N-[1-(phenylethyl)-4-piperidinyl]-benzeneacetamide, monohydrochloride] it is 263 to 264 °C.

Take `CCCCC(=CCN1CCC(N2Cc3ccccc3C2=O)CC1)CCCC` (as salt: hydrochloride) [Example 32, 2-[1-(3-Butyl-2-heptenyl)-4-piperidinyl]-2,3-dihydro-1H-isoindol-1-one, monohydrochloride]: the melting point was 147 to 152 °C. Consider `CC(=O)N(Cc1ccccc1)C1CCN(CCC(c2ccccc2)c2ccccc2)CC1` (as salt: hydrochloride) [Example 41, N-[1-(3,3-Diphenylpropyl)-4-piperidinyl]-N-(phenylmethyl)acetamide, monohydrochloride], for which the melting point fell in the range of 102 to 105 °C. As to `COc1ccccc1CCCN1CCC(N2Cc3ccccc3C2=O)CC1` (as salt: hydrochloride) [Example 21, 2,3-Dihydro-2-[1-[3-(2-methoxyphenyl)propyl]-4-piperidinyl]-1H-isoindol-1-one, monohydrochloride], the melting point fell in the range of 191 to 195 °C. Compound `O=C1CC(CN2CCN(C(c3ccccc3)c3ccc(Cl)cc3)CC2)Cc2cc(F)ccc21` (centres unmarked) (as salt: hydrochloride) [Example 27, 3-[[4-[(4-Chlorophenyl)phenylmethyl]-1-piperazinyl]methyl]-6-fluoro-3,4-dihydro-1(2H)-naphthalenone, dihydrochloride] registered a melting point of 211 to 212 °C. In turn, `O=C1c2ccc(Cl)cc2CN1C1CCN(Cc2ccccc2)CC1` (as salt: hydrochloride) [Example 31, 5-Chloro-2,3-dihydro-2-[1-(phenylmethyl)-4-piperidinyl]-1H-isoindol-1-one, monohydrochloride] showed a melting point of 269 to 271 °C. In the case of `COc1ccccc1C(=O)NC1CCN(CCC(c2ccccc2)c2ccccc2)CC1` (as salt: hydrochloride) [Example 38, N-[1-(3,3-Diphenylpropyl)-4-piperidinyl]-2-methoxybenzamide, monohydrochloride], the melting point is 170 to 172 °C. The compound `O=C1c2ccccc2CN1C1CCN(C/C=C/c2ccccc2Oc2ccccc2)CC1` (as salt: hydrochloride) [Example 20, (E)-2,3-Dihydro-2-[1-[3-(2-phenoxyphenyl)-2-propenyl]-4-piperidinyl]-1H-isoindol-1-one, monohydrochloride] yielded a melting point of 215 to 218 °C.

For the compound `O=C1c2ccccc2CN1C1CCN(CCCc2ccccc2)CC1` (as salt: hydrochloride) [Example 14, 2,3-Dihydro-2-[1-(3-phenylpropyl)-4-piperidinyl]-1H-isoindol-1-one, monohydrochloride], the melting point lay in the range of 229 to 231 °C.

As to `O=C1c2ccccc2CN1C1CCN(C/C=C\CC(c2ccccc2)c2ccccc2)CC1` (as salt: hydrochloride) [Example 36, (Z)-2,3-Dihydro-2-[1-(5,5-diphenyl-2-pentenyl)-4-piperidinyl]-1H-isoindol-1-one, monohydrochloride], the melting point was 174 to 177 °C. `COc1ccccc1N1CCN(CC2CC(=O)c3ccc(F)cc3C2)CC1` (centres unmarked) [Example 22, 6-Fluoro-3,4-dihydro-3-[[4-(2-methoxyphenyl)-1-piperazinyl]-methyl]-1(2H)-naphthalenone] came in with a melting point of 111 to 113 °C.

As to `O=C1c2ccccc2CN1C1CCN(CCCc2ccccc2Oc2ccccc2)CC1` (as salt: hydrochloride) [Example 34, 2,3-Dihydro-2-[1-[3-(2-phenoxyphenyl)propyl]-4-piperidinyl]-1H-isoindol-1-one, monohydrochloride], the melting point lay in the range of 199 to 202 °C. In turn, `O=C1c2ccccc2CN1C1CCN(Cc2ccccc2)CC1` (as salt: hydrochloride) [Example 13, 2,3-Dihydro-2-[1-(phenylmethyl)-4-piperidinyl]-1H-isoindol-1-one, monohydrochloride] displayed a melting point of 271 to 274 °C. The figure for `O=C1c2ccccc2CN1C1CCN(C(c2ccccc2)c2ccccc2)CC1` (as salt: hydrochloride) [Example 35, 2,3-Dihydro-2-[1-(diphenylmethyl)-4-piperidinyl]-1H-isoindol-1-one, monohydrochloride] is 165 to 169 °C; for `O=C(c1ccccc1)N(Cc1ccccc1)C1CCN(CCC(c2ccccc2)c2ccccc2)CC1` (as salt: hydrochloride) [Example 42, N-[1-(3,3-Diphenylpropyl)-4-piperidinyl]-N-(phenylmethyl)benzamide, monohydrochloride] it is 115 to 120 °C.

One may read the melting point as the temperature, or range, at which the solid turns liquid.
